According to US20260034094A1, “COMPOSITIONS AND METHODS FOR INDUCING FERROPTOSIS” (Kojin Therapeutics, Inc., priority 2022, published 2026):
Read-outs that look alike come from different tables or passages of the source.

How the values were obtained:
[1] = target: human recombinant GCL (Homo sapiens (Human), UniProt P48506); assay: GCL enzyme profiling assay (ADP-Glo luminescence); format: biochemical; conditions: read-out: GCL IC50
Method in brief: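 IC50 fitted by four-parameter logistic to luminescent ADP formation (ADP-Glo). Reaction at room temperature in HEPES pH 7.5 with 30 mM MgCl2, 0.2% F-127, 1% DMSO; 5 nM GCL and 0.6 mM ATP preincubated 1 h before adding 1 mM glutamate plus 1.2 mM α-aminobutyrate for 2 h.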

[2] = tested on: RKN cells; assay: RKN cell profiling assay (cell viability, CellTiter-Glo); format: cell-based
Method in brief: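 Viability read by CellTiter-Glo luminescence after 96 h compound exposure (0.5% DMSO final) of cells plated at 1,000/well in 10% FBS F-12 and allowed 24 h attachment. Four-parameter fits gave EC50; rescue arms used ferrostatin-1, 1.5 μM, present from seeding.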

[3] = cell viability, read-out: Cell Killing EC50
[4] = human recombinant GCL 5 nM, 1 h preincubation with ATP
[5] = 96 h, 96 h exposure, read-out: Cell Killing EC50
[6] = 96 h exposure, read-out: Cell Killing EC50

Sequence of human recombinant GCL (P48506 whole entry): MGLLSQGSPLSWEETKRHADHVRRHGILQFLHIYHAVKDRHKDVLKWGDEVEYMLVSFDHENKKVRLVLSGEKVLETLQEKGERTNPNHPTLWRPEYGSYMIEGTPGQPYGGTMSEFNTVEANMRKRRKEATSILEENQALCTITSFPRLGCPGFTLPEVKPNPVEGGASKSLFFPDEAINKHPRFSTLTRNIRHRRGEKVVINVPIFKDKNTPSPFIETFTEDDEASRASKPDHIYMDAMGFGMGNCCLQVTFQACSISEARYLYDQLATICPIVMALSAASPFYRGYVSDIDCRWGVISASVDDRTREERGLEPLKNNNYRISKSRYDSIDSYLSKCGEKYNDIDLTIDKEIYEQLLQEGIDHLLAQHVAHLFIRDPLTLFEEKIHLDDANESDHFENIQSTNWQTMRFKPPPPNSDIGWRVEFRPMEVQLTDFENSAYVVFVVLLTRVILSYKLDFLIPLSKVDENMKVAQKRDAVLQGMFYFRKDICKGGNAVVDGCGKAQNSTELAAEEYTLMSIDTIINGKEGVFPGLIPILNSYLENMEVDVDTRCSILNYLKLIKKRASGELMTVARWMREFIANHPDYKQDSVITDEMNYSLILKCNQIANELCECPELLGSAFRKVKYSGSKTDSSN

SMILES | IC50 ([1]; human recombinant GCL, ADP-Glo) | IC50 [1, 4] | EC50 [2, 3] | EC50 [2, 5] | also measured
Cc1cc(-c2ccc(C(O)(CCS(=N)(=O)CC[C@H](N)C(=O)O)C(F)(F)F)cc2)c(C)o1 (some centres unmarked) [Compound 447] | ≤ 20 µM |  | ≥ 1 mM |  | 
Cc1cnn(C2(CCS(=N)(=O)CC[C@H](N)C(=O)O)CCC2)n1 (some centres unmarked) [Compound 417] | 20 to 2000 µM |  | < 1 mM |  | 
N=S(=O)(CC[C@H](N)C(=O)O)CCC1(C(=O)Nc2ccccc2)CCC1 (some centres unmarked) [Compound 195] |  | 20 to 2000 µM |  | ≥ 1 mM | 
N=S(=O)(CCC(c1ccc(-c2ccccc2)cc1O)C(F)(F)F)CC[C@H](N)C(=O)O (stereo partly drawn) [Compound 391, (2S)-2-amino-4-(4,4,4-trifluoro-3-(3-hydroxy-[1,1′-biphenyl]-4-yl)butylsulfonimidoyl)butanoic acid] | ≤ 20 µM |  | < 1 mM |  | 
N=S(=O)(CCCC(F)(F)F)CC[C@H](N)C(=O)OCc1ccccc1 (some centres unmarked) [Compound 86] |  | 20 to 2000 µM |  | < 1 mM | 
N=S(=O)(CC[C@H](N)C(=O)O)CCC(O)(c1ccc(-c2cnco2)cn1)C(F)(F)F (some centres unmarked) [Compound 480] | 20 to 2000 µM |  | ≥ 1 mM |  | 
CC(=O)N(c1ccc(C(O)(CC[S@SP3](=N)(=O)CCC(N)C(=O)O)C(F)(F)F)cc1)c1nccs1 (centres unmarked) [compound 504] | ≤ 20 µM |  | ≥ 1 mM |  | 
N=S(=O)(CCCC(F)(F)F)CC[C@H](N)C(=O)Nc1ccccc1 (some centres unmarked) [Compound 132] |  | > 2000 µM |  | < 1 mM | 
N=S(=O)(CC[C@H](N)C(=O)O)CCC(O)(c1nc2ccccc2o1)C(F)(F)F (some centres unmarked) [compound 502] | ≤ 20 µM |  | < 1 mM |  | 
CCCCS(=N)(=O)CC[C@H](N)C#N (stereo partly drawn) [Compound 199, (2S)-2-amino-4-(butylsulfonimidoyl)butanenitrile] |  | > 2000 µM |  | ≥ 1 mM | 
N=[S@@](=O)(CC[C@H](N)C(=O)O)CCC1(c2ccccn2)CCC1 [compound 388] | 20 to 2000 µM |  | < 1 mM |  | 
N[C@@H](CCS(=O)(=O)CCC(O)C(F)(F)F)C(=O)O (some centres unmarked) [compound 516] | > 2000 µM |  | ≥ 1 mM |  | 
N[C@@H](CCS(=O)(=O)CCC(O)(c1ccc(-c2ccc(Cl)cc2Cl)cc1)C(F)(F)F)C(=O)O (stereo partly drawn) [Compound 427, (2S)-2-amino-4-((3-(2′, 4′-dichloro-[1, 1′-biphenyl]-4-yl)-4,4,4-trifluoro-3-hydroxybutyl)sulfonyl) butanoic acid] | 20 to 2000 µM |  | ≥ 1 mM |  | 
N=S(=O)(CC[C@H](N)C(=O)O)CCC1(c2ccc(-c3ccc(Cl)cc3Cl)cc2)CCC1 (some centres unmarked) [Compound 402] | ≤ 20 µM |  | < 1 mM |  | 
CC(C)(C)c1nnc(-c2ccc(C(O)(CCS(=N)(=O)CC[C@H](N)C(=O)O)C(F)(F)F)cc2)o1 (some centres unmarked) [Compound 445] | 20 to 2000 µM |  | ≥ 1 mM |  | 
CCCC(C)OC(=O)[C@@H](N)CCS(=N)(=O)CCCC(F)(F)F (some centres unmarked) [Compound 82] |  | 20 to 2000 µM |  | < 1 mM | 
N=S(=O)(CCC(c1ccccc1)c1ccccc1)CC[C@H](N)C(=O)O (some centres unmarked) [Compound 55] |  | 20 to 2000 µM |  | ≥ 1 mM | 
Cc1ccc(-c2nn[nH]n2)cc1CCS(=N)(=O)CC[C@H](N)C(=O)O (some centres unmarked) [Compound 45] |  | ≤ 20 µM |  | ≥ 1 mM | 
N#Cc1ccc(-c2ccc(C(CCS(=N)(=O)CC[C@H](N)C(=O)O)C(F)(F)F)cc2)cn1 (some centres unmarked) [Compound 244] | ≤ 20 µM |  | ≥ 1 mM |  | 
N[C@H]1CC[S@@](=O)(CC[C@H](O)C(F)(F)F)=NC1=O [Compound 496, (1R,4S)-4-amino-1-((S)-4,4,4-trifluoro-3-hydroxybutyl)-5,6-dihydro-116,2-thiazin-3 (4H)-one 1-oxide] | 20 to 2000 µM |  | < 1 mM |  | 
N=S(=O)(CCC(n1ncc(-c2ccccc2)n1)C(F)(F)F)CC[C@H](N)C(=O)O (some centres unmarked) [Compound 409] | ≤ 20 µM |  | < 1 mM |  | 
N=S(=O)(CC[C@H](N)C(=O)O)CCC1(C(F)(F)F)OCc2ccccc21 (some centres unmarked) [compound 511] | 20 to 2000 µM |  | < 1 mM |  | 
Cc1cc(F)ccc1-c1ccc(C(O)(CCS(=N)(=O)CC[C@H](N)C(=O)O)C(F)(F)F)nc1 (some centres unmarked) [Compound 479] | ≤ 20 µM |  | < 1 mM |  | 
N=S(=O)(CC[C@H](N)C(=O)O)CCC(O)(c1ccc(-c2ccc(C(F)(F)F)cc2Cl)cc1)C(F)(F)F (some centres unmarked) [Compound 441] | 20 to 2000 µM |  | < 1 mM |  | 
N=S(=O)(CC[C@H](N)C(=O)O)CCC1(n2nc3ccccc3n2)CCC1 (some centres unmarked) [Compound 421] | ≤ 20 µM |  | ≥ 1 mM |  | 
N=S(=O)(CCC(c1ccc(-c2ccccc2Cl)cc1)C(F)(F)F)CC[C@H](N)C(=O)O (single isomer, unassigned) [Compound 218] | 20 to 2000 µM |  | ≥ 1 mM |  | 
CCCCc1ccc(C(CCS(=N)(=O)CC[C@H](N)C(=O)O)C(F)(F)F)cc1 (some centres unmarked) [Compound 224] | ≤ 20 µM |  | < 1 mM |  | 
N=S(=O)(CC[C@H](N)C(=O)O)CCC(O)(c1cc2cc[nH]c2cn1)C(F)(F)F (some centres unmarked) [Compound 360] | ≤ 20 µM |  | < 1 mM |  | 
CC(C)(C)c1cc(-c2ccc(C(O)(CCS(=N)(=O)CC[C@H](N)C(=O)O)C(F)(F)F)cc2)ccc1O (some centres unmarked) [Compound 456] | ≤ 20 µM |  | ≥ 1 mM |  | 
N=S(=O)(CC[C@H](N)C(=O)O)CCC(O)(c1cc2ccccc2cn1)C(F)(F)F (stereo partly drawn) [Compound 331, (2S)-2-amino-4-(4,4,4-trifluoro-3-hydroxy-3-(isoquinolin-3-yl)butylsulfonimidoyl)butanoic acid] | ≤ 20 µM |  | < 1 mM |  | 

The next lines start with results.

IC50 ([1]; human recombinant GCL, ADP-Glo) | IC50 [1, 4] | SMILES | EC50 [2, 3] | EC50 [2, 5] | also measured
≤ 20 µM |  | C[C@@](O)(CCS(=N)(=O)CC[C@H](N)C(=O)O)C(F)(F)F (single isomer, unassigned) [Compound 322] | < 1 mM |  | 
 | 20 to 2000 µM | N=S(=O)(CC[C@H](N)C(=O)O)CC(=O)C1CCCC1 (stereo partly drawn) [Compound 136, (2S)-2-amino-4-(2-cyclopentyl-2-oxoethylsulfonimidoyl)butanoic acid] |  | ≥ 1 mM | 
 | 20 to 2000 µM | N=S(=O)(CC[C@H](N)C(=O)O)CCC1(O)CCC1 (some centres unmarked) [Compound 153] |  | < 1 mM | 
≤ 20 µM |  | N=S(=O)(CCC(C1CCC1)C(F)(F)F)CC[C@H](N)C(=O)O (some centres unmarked) [Compound 383] | ≥ 1 mM |  | 
 | > 2000 µM | COC(CC[S@@](=N)(=O)CC[C@H](N)C(=O)O)C(F)(F)F (some centres unmarked) [Compound 176] |  | ≥ 1 mM | 
 | 20 to 2000 µM | Cc1ccc(C(C)(C)CCS(=N)(=O)CC[C@H](N)C(=O)O)cc1 (some centres unmarked) [Compound 56] |  | ≥ 1 mM | 
 | ≤ 20 µM | N=S(=O)(CCC1CCC1)CC[C@H](N)C(=O)O (some centres unmarked) [Compound 165] |  | < 1 mM | 
20 to 2000 µM |  | N=S(=O)(CC[C@H](N)C(=O)O)CCC1(O)CC(F)(F)C1 (some centres unmarked) [Compound 303] | < 1 mM |  | 
≤ 20 µM |  | CC(C)C(O)(CCS(=N)(=O)CC[C@H](N)C(=O)O)C(F)(F)F (some centres unmarked) [Compound 353] | ≥ 1 mM |  | 
20 to 2000 µM |  | CC(O)(CCS(=N)(=O)CC[C@H](N)C(=O)O)C1CCC1 (stereo partly drawn) [Compound 497, (2S)-2-amino-4-(3-cyclobutyl-3-hydroxybutylsulfonimidoyl)butanoic acid] | ≥ 1 mM |  | 
 | 20 to 2000 µM | CC(C)(CCS(=N)(=O)CC[C@H](N)C(=O)O)C(F)(F)F (some centres unmarked) [Compound 152] |  | < 1 mM | 
 | 20 to 2000 µM | CC(C)(CCS(=N)(=O)CC[C@H](N)C(=O)O)C(N)=O (some centres unmarked) [Compound 190] |  | ≥ 1 mM | 
 | 20 to 2000 µM | CC(C)(C)OC(=O)[C@@H](N)CC[S@@](=N)(=O)CCCC(F)(F)F [Compound 93] |  | < 1 mM | 
 | ≤ 20 µM | N=S(=O)(CCc1ccccc1C(F)(F)F)CC[C@H](N)C(=O)O (some centres unmarked) [Compound 15] |  | ≥ 1 mM | EC50 ([2]; 96 h, 96 h exposure, read-out: Cell Killing EC50 (mM), individual values in parentheses): 1.2 mM; EC50 ([2]; 96 h exposure, read-out: Cell Killing EC50 (mM), individual values in parentheses): 0.97 mM
20 to 2000 µM |  | CC(C)(C)OC(=O)[C@@H](N)CC[S@@](=N)(=O)CC[C@@H](O)C(F)(F)F [Compound 491, tert-butyl (S)-2-amino-4-((R,3R)-4,4,4-trifluoro-3-hydroxybutylsulfonimidoyl)butanoate] | < 1 mM |  | 
 | ≤ 20 µM | N=S(=O)(CCC(O)C(F)(F)F)CC[C@H](N)C(=O)O (stereo partly drawn) [Compound 154, (2S)-2-amino-4-(4,4,4-trifluoro-3-hydroxybutylsulfonimidoyl)butanoic acid] |  | < 1 mM | 
 | 20 to 2000 µM | CC(C)(CO)CCS(=N)(=O)CC[C@H](N)C(=O)O (some centres unmarked) [Compound 184] |  | < 1 mM | 
 | 20 to 2000 µM | N=S(=O)(CCc1ccccc1)CC[C@H](N)C(=O)O (stereo partly drawn) [Compound 2, (2S)-2-amino-4-(2-phenylethylsulfonimidoyl)butanoic acid] |  | ≥ 1 mM | 
 | 20 to 2000 µM | CC(C)(CCS(=N)(=O)CC[C@H](N)C(=O)O)n1cc(-c2ccccc2)nn1 (stereo partly drawn) [Compound 207, (2S)-2-amino-4-(3-methyl-3-(4-phenyl-1H-1,2,3-triazol-1-yl)butylsulfonimidoyl)butanoic acid] |  | ≥ 1 mM | 
 | ≤ 20 µM | COC(CC[S@](=N)(=O)CC[C@H](N)C(=O)O)C(F)(F)F (some centres unmarked) [Compound 179] |  |  | EC50 [2, 6]: < 1 mM
 | > 2000 µM | COC(CC[S@@](=N)(=O)CC[C@H](N)C(=O)O)C(F)(F)F (some centres unmarked) [Compound 177] |  |  | EC50 [2, 6]: ≥ 1 mM
20 to 2000 µM |  | CCCCS(=N)(=O)CC[C@H](N)C(=O)OCC (some centres unmarked) [Compound 482] | ≥ 1 mM |  | 
≤ 20 µM |  | N=S(=O)(CC[C@@H](O)C(F)(F)F)CC[C@H](N)C(=O)O (single isomer, unassigned) [Compound 328] | < 1 mM |  | 
 | 20 to 2000 µM | COc1ccc(CCS(=N)(=O)CC[C@H](N)C(=O)O)cc1 (some centres unmarked) [Compound 12] |  | ≥ 1 mM | 
